Assays:
Type in all cases: cell-based
[1] = test system: Bacillus subtilis A; experiment: MIC, DST agar + 10% horse blood; conditions: read-out: minimum inhibitory concentration (MIC)
Method: (§1) The penem ester (21) (30 mg) was dissolved in a mixture of dioxane (4 ml) and water (1 ml) and hydrogenated over 5% palladium on charcoal catalyst (45 mg) for one hour. A further amount of catalyst (30 mg) was added and the hydrogenation was continued for a further one and a half hours. A 1% solution of sodium bicarbonate (0.6 ml) was added and the mixture filtered through Kieselguhr. The mixture was evaporated to low volume, water (10 ml) was added, and the aqueous solution washed with a little ethyl acetate. Evaporation of the aqueous phase afforded the sodium salt (22) (17 mg) as an amorphous solid. λmax. (EtOH) 364 n.m.
(§2) 1. DST agar + 10% horse blood
(§3) lution for G.div.ve bacteria or
(§4) Minimum Inhibitory Concentrations are expressed in microgrammes per ml.

[2] = test system: Citrobacter freundii E8; experiment: MIC, DST agar + 10% horse blood; conditions: read-out: minimum inhibitory concentration (MIC)
Method: as §1, §2, §3, §4

[3] = test system: E. coli ESS; experiment: MIC, DST agar + 10% horse blood; conditions: Escherichia coli, read-out: minimum inhibitory concentration (MIC)
Method: as §1, §2, §3, §4

[4] = test system: Enterobacter cloacae N1; experiment: MIC, DST agar + 10% horse blood; conditions: read-out: minimum inhibitory concentration (MIC)
Method: as §1, §2, §3, §4

[5] = test system: Escherichia coli 0111; experiment: MIC, DST agar + 10% horse blood; conditions: read-out: minimum inhibitory concentration (MIC)
Method: as §1, §2, §3, §4

[6] = test system: Escherichia coli JT 39; experiment: MIC, DST agar + 10% horse blood; conditions: JT39, read-out: minimum inhibitory concentration (MIC)
Method: as §1, §2, §3, §4

[7] = test system: Klebsiella aerogenes A; experiment: MIC, DST agar + 10% horse blood; conditions: read-out: minimum inhibitory concentration (MIC)
Method: as §1, §2, §3, §4

[8] = test system: Proteus mirabilis C977; experiment: MIC, DST agar + 10% horse blood; conditions: read-out: minimum inhibitory concentration (MIC)
Method: as §1, §2, §3, §4

[9] = test system: Proteus morganii I580; experiment: MIC, DST agar + 10% horse blood; conditions: Morganella morganii, read-out: minimum inhibitory concentration (MIC)
Method: as §1, §2, §3, §4

[10] = test system: Proteus rettgeri WM16; experiment: MIC, DST agar + 10% horse blood; conditions: Providencia rettgeri, read-out: minimum inhibitory concentration (MIC)
Method: as §1, §2, §3, §4

[11] = test system: Proteus vulgaris W091; experiment: MIC, DST agar + 10% horse blood; conditions: read-out: minimum inhibitory concentration (MIC)
Method: as §1, §2, §3, §4

[12] = test system: Pseudomonas aeruginosa A; experiment: MIC, DST agar + 10% horse blood; conditions: read-out: minimum inhibitory concentration (MIC)
Method: as §1, §2, §3, §4

[13] = test system: Salmonella typhimurium CT10; experiment: MIC, DST agar + 10% horse blood; conditions: Salmonella enterica, read-out: minimum inhibitory concentration (MIC)
Method: as §1, §2, §3, §4

[14] = test system: Serratia marcescens US20; experiment: MIC, DST agar + 10% horse blood; conditions: read-out: minimum inhibitory concentration (MIC)
Method: as §1, §2, §3, §4

[15] = test system: Shigella sonnei MB 11967; experiment: MIC, DST agar + 10% horse blood; conditions: MB11967, read-out: minimum inhibitory concentration (MIC)
Method: as §1, §2, §3, §4

[16] = test system: Staphylococcus aureus 1517; experiment: MIC, DST agar + 10% horse blood; conditions: read-out: minimum inhibitory concentration (MIC)
Method: as §1, §2, §3, §4

[17] = test system: Staphylococcus aureus Oxford; experiment: MIC, DST agar + 10% horse blood; conditions: read-out: minimum inhibitory concentration (MIC)
Method: as §1, §2, §3, §4

[18] = test system: Staphylococcus aureus Russell; experiment: MIC, DST agar + 10% horse blood; conditions: read-out: minimum inhibitory concentration (MIC)
Method: as §1, §2, §3, §4

[19] = test system: Streptococcus pneumoniae CN33; experiment: MIC, DST agar + 10% horse blood; conditions: read-out: minimum inhibitory concentration (MIC)
Method: as §1, §2, §3, §4

[20] = test system: Streptococcus pyogenes CN10; experiment: MIC, DST agar + 10% horse blood; conditions: read-out: minimum inhibitory concentration (MIC)
Method: as §1, §2, §3, §4

[21] = test system: Escherichia coli 0111; experiment: MIC, microtitre using nutrient broth; conditions: read-out: minimum inhibitory concentration (MIC)
Method: as §1
(§5) 2. Microtitre using nutrient
as §3
(§6) broth a 10^- 4 dilution for G-ve
as §4

[22] = test system: Escherichia coli JT 39; experiment: MIC, microtitre using nutrient broth; conditions: JT39, read-out: minimum inhibitory concentration (MIC)
Method: as §1, §5, §3, §6, §4

[23] = test system: Klebsiella aerogenes A; experiment: MIC, microtitre using nutrient broth; conditions: read-out: minimum inhibitory concentration (MIC)
Method: as §1, §5, §3, §6, §4

[24] = test system: Proteus mirabilis C977; experiment: MIC, microtitre using nutrient broth; conditions: read-out: minimum inhibitory concentration (MIC)
Method: as §1, §5, §3, §6, §4

[25] = test system: Pseudomonas aeruginosa A; experiment: MIC, microtitre using nutrient broth; conditions: read-out: minimum inhibitory concentration (MIC)
Method: as §1, §5, §3, §6, §4

[26] = test system: Salmonella typhimurium CT10; experiment: MIC, microtitre using nutrient broth; conditions: Salmonella enterica, read-out: minimum inhibitory concentration (MIC)
Method: as §1, §5, §3, §6, §4

[27] = test system: Staphylococcus aureus Oxford; experiment: MIC, microtitre using nutrient broth; conditions: read-out: minimum inhibitory concentration (MIC)
Method: as §1, §5, §3, §6, §4

[28] = test system: Staphylococcus aureus Russell; experiment: MIC, microtitre using nutrient broth; conditions: read-out: minimum inhibitory concentration (MIC)
Method: as §1, §5, §3, §6, §4

Q: What does the source list for COC(=O)/C=C/C1=C(C(=O)O)N2C(=O)C[C@H]2S1 [compound 22, Sodium 2-(trans-2-Carbomethoxy-vinyl) penem-3-carboxylate]?
A: MIC [1]: 5 µg/mL; MIC [2]: 25 µg/mL; MIC [3]: 25 µg/mL; MIC [4]: 50 µg/mL; MIC [5]: 25 µg/mL; MIC [6]: 100 µg/mL; MIC [7]: 25 µg/mL; MIC [8]: 25 µg/mL; MIC [9]: 50 µg/mL; MIC [10]: 50 µg/mL; MIC [11]: 50 µg/mL; MIC [12]: > 100 µg/mL; MIC [13]: 50 µg/mL; MIC [14]: 50 µg/mL; MIC [15]: 100 µg/mL; MIC [16]: 50 µg/mL; MIC [17]: 5 µg/mL; MIC [18]: 10 µg/mL; MIC [19]: 0.5 µg/mL; MIC [20]: 2.5 µg/mL; MIC [21]: 62 µg/mL; MIC [22]: 250 µg/mL; MIC [23]: 31 µg/mL; MIC [24]: 125 µg/mL; MIC [25]: > 500 µg/mL; MIC [26]: 125 µg/mL; MIC [27]: 8 µg/mL; MIC [28]: 16 µg/mL

Source: patent publication US4282236A, “β-Lactam antibacterial agents, their use in pharmaceutical compositions, and intermediates” (Beecham Group Limited, priority 1979, dated 1981)
